The text below walks through data of ChEMBL document CHEMBL3351271, “Design, synthesis and biological evaluation of novel potent MDM2/p53 small-molecule inhibitors” (Bioorg Med Chem Lett, 2015).

Where only a bound is given, the exact number is not on record here.

For one assay, the system named is HepG2. Nature of the assay: Cytotoxicity against human HepG2 cells after 48 hrs by MTT assay. Format: functional, cell-based. The conditions noted are these: HepG2, 48 h. On the technique in general: Tetrazolium dyes change colour on reduction, which living cells bring about.
The subject of another assay is HEK293. Nature of the assay: Cytotoxicity against HEK293 cells after 48 hrs by MTT assay. Format: cell-based. The conditions noted are these: Homo sapiens, HEK293, 48 h.
Assay [1] concerns MCF7. Nature of the assay: Cytotoxicity against human MCF7 cells after 48 hrs by MTT assay. The format is functional, cell-based. The conditions noted are these: MCF7, 48 h.
In another assay the test system is SiHa. As to the kind of experiment: Cytotoxicity against human SiHa cells after 48 hrs by MTT assay. The format is functional, cell-based.
A short description of assay [2]: Cytotoxicity against p53 deficient human HCT116 cells after 48 hrs by MTT assay. The format is functional, cell-based. Particulars: HCT-116, 48 h; call rule not given here.
The nature of assay [3]: Cytotoxicity against p53 expressing human HCT116 cells after 48 hrs by MTT assay. Format: functional, cell-based. Particulars: HCT-116, 48 h.
Assay [4] concerns MCF7. As to the kind of experiment: Cytotoxicity against human MCF7 cells after 120 hrs by MTT assay. The format is functional. The conditions noted are these: MCF7, 120 h.
Assay [5] deals with Tumour suppressor p53/oncoprotein Mdm2 (Homo sapiens, UniProt Q00987). Nature of the assay: Inhibition of MDM2/P53 (unknown origin) protein interaction by fluorescent polarization assay.
[6] abbreviates: Homo sapiens, SiHa, 48 h, read-out: IC50.

Sequence of Tumour suppressor p53/oncoprotein Mdm2 (P04637 whole entry): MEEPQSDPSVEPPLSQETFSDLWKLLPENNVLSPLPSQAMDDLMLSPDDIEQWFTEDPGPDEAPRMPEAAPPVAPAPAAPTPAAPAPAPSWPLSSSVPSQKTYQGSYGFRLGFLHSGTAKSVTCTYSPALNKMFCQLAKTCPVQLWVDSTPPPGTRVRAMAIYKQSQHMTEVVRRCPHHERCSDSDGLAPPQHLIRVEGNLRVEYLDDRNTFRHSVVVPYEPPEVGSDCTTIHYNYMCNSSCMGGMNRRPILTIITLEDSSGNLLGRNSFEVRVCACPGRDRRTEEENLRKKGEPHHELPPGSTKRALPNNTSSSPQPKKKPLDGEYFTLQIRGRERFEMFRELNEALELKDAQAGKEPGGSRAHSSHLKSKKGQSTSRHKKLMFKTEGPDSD
Sequence of Tumour suppressor p53/oncoprotein Mdm2 (Q00987 whole entry): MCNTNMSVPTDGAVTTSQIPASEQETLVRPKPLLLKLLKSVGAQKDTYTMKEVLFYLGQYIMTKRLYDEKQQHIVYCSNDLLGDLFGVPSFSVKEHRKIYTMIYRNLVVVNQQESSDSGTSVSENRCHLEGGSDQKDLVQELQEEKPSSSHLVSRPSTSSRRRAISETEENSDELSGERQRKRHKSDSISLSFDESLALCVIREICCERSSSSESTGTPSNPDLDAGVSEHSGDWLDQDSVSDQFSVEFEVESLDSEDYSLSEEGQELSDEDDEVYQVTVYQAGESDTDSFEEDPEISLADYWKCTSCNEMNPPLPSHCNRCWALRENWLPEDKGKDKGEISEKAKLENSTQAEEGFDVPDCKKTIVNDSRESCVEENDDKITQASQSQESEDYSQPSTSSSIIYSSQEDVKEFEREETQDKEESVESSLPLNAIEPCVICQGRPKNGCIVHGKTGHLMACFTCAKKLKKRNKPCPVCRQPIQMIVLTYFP

`CC(C)Oc1ccc(C2CN(C)[C@]3(C(=O)Nc4ccccc43)[C@]23NC(=S)N(c2ccc(F)c(Cl)c2)C3=O)cc1` (stereo partly specified): the IC50 with HepG2 is 49.9 µM; in the assay on HEK293, 13.5 µM; with MCF7 [1], 20.2 µM; in the assay on SiHa (siha), “Not Active”; in assay [2], 7.4 µM; in assay [3], 8.55 µM.
With `CN1CC(c2ccc(Cl)cc2)[C@@]2(NC(=S)N(c3ccc(F)c(Cl)c3)C2=O)[C@@]12C(=O)Nc1ccccc12` (stereo partly specified), the IC50 is 9.08 µM in the assay on HepG2; 5.68 µM in the assay with HEK293; 4.88 µM in the assay with MCF7 [1]; 7.65 µM in the assay on SiHa (setting [6]); 7.33 µM in assay [2]; 7.78 µM in assay [3].
For `CC(C)Oc1ccc(C2CN(C)[C@]3(C(=O)Nc4ccc(Br)cc43)[C@]23NC(=S)N(c2ccc(F)c(Cl)c2)C3=O)cc1` (stereo partly specified), the IC50 with HepG2 is 34.6 µM; with HEK293 it was 15.8 µM; in the assay on MCF7 [1], 34.9 µM; with SiHa (siha), “Not Active”; in assay [2], 19.4 µM; in assay [3], 38.8 µM.
Turning to `CCOc1ccc(N2C(=O)[C@@]3(NC2=S)C(c2ccc(Cl)cc2)CN(C)[C@]32C(=O)Nc3ccccc32)cc1` (stereo partly specified), the IC50 in the assay with HepG2 was found to be 103 µM; in the assay with HEK293 it was 9.1 µM; with MCF7 [1], 87.7 µM; in the assay with SiHa (setting [6]), 81.7 µM; in assay [2] it was 8.57 µM; in assay [3], 8.6 µM.
Turning to `CCc1ccc(C2CN(C)[C@]3(C(=O)Nc4ccccc43)[C@]23NC(=S)N(c2ccc(F)c(Cl)c2)C3=O)cc1` (stereo partly specified), the concentration for half-maximal inhibition (IC50) in the assay on HepG2 was determined as 33.9 µM; in the assay on HEK293 it was 12.5 µM; in the assay with MCF7 [1] it was 19 µM; in the assay on SiHa (setting [6]) it was 42.5 µM; in assay [2] it was 8.45 µM; in assay [3], 8.6 µM.
Take `CCOc1ccc(N2C(=O)[C@@]3(NC2=S)C(c2ccc(Cl)cc2)CN(C)[C@]32C(=O)Nc3ccc(Br)cc32)cc1` (stereo partly specified): the IC50 in the assay on HepG2 was 42.1 µM; with HEK293, 28.6 µM; with MCF7 [1], 34.9 µM; with SiHa (siha), “Not Active”; in assay [2] it was 16.3 µM; in assay [3] it was ≥ 50 µM.
In the case of `CN1CC(c2ccc(Cl)cc2)[C@@]2(NC(=S)N(c3ccc(F)c(Cl)c3)C2=O)[C@@]12C(=O)Nc1ccc(Br)cc12` (stereo partly specified), the IC50 in the assay on HepG2 is 11.1 µM; in the assay on HEK293 it was 10.3 µM; in the assay with MCF7 [1] it was 6.84 µM; in the assay on SiHa (setting [6]), 12.1 µM; in assay [2] it was 8.65 µM; in assay [3], 9.9 µM.
With `CCc1ccc(C2CN(C)[C@]3(C(=O)Nc4ccc(Br)cc43)[C@]23NC(=S)N(c2ccc(F)c(Cl)c2)C3=O)cc1` (stereo partly specified), the IC50 in the assay with HepG2 was 23 µM; in the assay with HEK293 it was 15.6 µM; in the assay with MCF7 [1], 15.5 µM; with SiHa (setting [6]), 79.1 µM; in assay [2], 33.5 µM; in assay [3] it was 11.6 µM.
Consider `CCOc1cc(C(C)(C)C)ccc1C1=N[C@@](C)(c2ccc(Cl)cc2)[C@@](C)(c2ccc(Cl)cc2)N1C(=O)N1CCN(CCS(C)(=O)=O)CC1`, for which the midpoint of cytotoxicity in the assay with MCF7 [4], the CC50, lay at 0.94 µM.
`CC(C)CC(N/C(C(=O)NCc1ccccc1)=C1\C(C(=O)NO)=Nc2cc(Cl)ccc21)C(=O)NO` (stereo unspecified) yielded a Ki in assay [5] of 0.9 µM. This counts as sub-micromolar.
`COc1ccc(C2=N[C@@H](c3ccc(Cl)cc3)[C@@H](c3ccc(Cl)cc3)N2C(=O)N2CCNC(=O)C2)c(OC(C)C)c1` [NUTLIN-3]: the IC50 with HepG2 was found to be 5.1 µM.

In general, IC50 refers to the concentration needed to halve the response being measured. For orientation: CC50 means the concentration that lowers cell viability or growth by half. For orientation: Ki means the dissociation constant of the complex between target and ligand, obtained from inhibition or displacement.
